The supplement of paper PMC10307832

Legend:
Test in all cases: relative viability (nuclei count vs DMSO), 5 days (fraction); higher = more cells survive
[1] = compound: CS(=O)(=O)CCNCc1ccc(-c2ccc3ncnc(Nc4ccc(OCc5cccc(F)c5)c(Cl)c4)c3c2)o1 [Lapatinib] + O=C(c1cc(Cc2n[nH]c(=O)c3ccccc23)ccc1F)N1CCN(C(=O)C2CC2)CC1 [Olaparib] (partner 8 µM)
How it was run: (§1)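 Medians of duplicate plates are given as relative viability. That measure is the nuclei count in treated wells divided by the count in vehicle wells. Counts were taken on 4× images of lung cancer cell lines in 1536-well plates, 5 days after pin-tool dosing the day after seeding with one drug alone or a fixed anchor-drug dose plus five library-drug doses (not always all listed) in √10 steps.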

[2] = compound: CS(=O)(=O)CCNCc1ccc(-c2ccc3ncnc(Nc4ccc(OCc5cccc(F)c5)c(Cl)c4)c3c2)o1 [Lapatinib] + Nc1ncn([C@H]2C[C@H](O)[C@@H](CO)O2)c(=O)n1 [Decitabine] (partner 2 µM)
How it was run: as §1

[3] = compound: CS(=O)(=O)CCNCc1ccc(-c2ccc3ncnc(Nc4ccc(OCc5cccc(F)c5)c(Cl)c4)c3c2)o1 [Lapatinib] + CC1(C)CCC(c2ccc(Cl)cc2)=C(CN2CCN(c3ccc(C(=O)NS(=O)(=O)c4ccc(N[C@H](CCN5CCOCC5)CSc5ccccc5)c(S(=O)(=O)C(F)(F)F)c4)cc3)CC2)C1 [Navitoclax] (partner 0.5 µM)
How it was run: as §1

[4] = compound: CC1=NC=CC(=C1)C2=CC=C(C=C2)CC(=O)NC3=CC=C(C=C3)C4=CN=CC=C4 [Wnt-C59] + Cc1nc(Nc2ncc(C(=O)Nc3c(C)cccc3Cl)s2)cc(N2CCN(CCO)CC2)n1 [Dasatinib] (partner 0.075 µM)
How it was run: as §1

Cell Line | relative viability ([1]; first compound 0.06325 µM) | relative viability ([1]; first compound 0.2 µM) | relative viability ([1]; first compound 0.6325 µM) | relative viability ([1]; first compound 2 µM) | relative viability ([2]; first compound 0.06325 µM) | relative viability ([2]; first compound 0.2 µM) | relative viability ([2]; first compound 0.6325 µM) | relative viability ([2]; first compound 2 µM) | relative viability ([3]; first compound 0.06325 µM) | relative viability ([3]; first compound 0.2 µM) | relative viability ([3]; first compound 0.6325 µM) | relative viability ([3]; first compound 2 µM) | relative viability ([4]; first compound 0.001 µM) | relative viability ([4]; first compound 0.01 µM) | relative viability ([4]; first compound 0.03162 µM) | relative viability ([4]; first compound 0.1 µM) | relative viability ([1]; first compound 0.02 µM) | relative viability ([2]; first compound 0.02 µM) | relative viability ([3]; first compound 0.02 µM)
HCC-15 | 0.706 | 0.689 | 0.659 | 0.621 | 0.537 | 0.677 | 0.64 | 0.568 | 0.679 | 0.704 | 0.635 | 0.599 | 0.667 | 0.634 | 0.644 | 0.574 |  |  | 
HCC-44 | 1 | 0.992 | 0.974 | 0.867 | 0.908 | 0.964 | 1.02 | 0.797 | 0.89 | 0.995 | 0.949 | 0.768 |  |  |  |  | 0.981 | 0.838 | 0.874
HCC-78 | 0.519 | 0.926 | 0.814 | 0.846 | 0.58 | 0.744 | 0.765 | 0.735 | 0.651 | 0.752 | 0.57 | 0.699 | 0.392 | 0.428 | 0.387 | 0.419 |  |  | 
HCC-366 | 0.411 | 0.38 | 0.38 | 0.251 | 0.348 | 0.405 | 0.368 | 0.291 | 1.02 | 1.08 | 1.03 | 0.914 | 0.678 | 0.621 | 0.594 | 0.487 |  |  | 
HCC-827 | 0.656 | 0.533 | 0.678 | 0.549 | 0.35 | 0.348 | 0.333 | 0.295 | 0.944 | 1.08 | 0.974 | 0.981 | 0.386 | 0.305 | 0.366 | 0.428 | 0.591 | 0.239 | 1
HOP-62 | 0.4 | 0.59 | 0.328 | 0.369 | 0.224 | 0.21 | 0.203 | 0.219 | 0.993 | 1.09 | 1.1 | 0.99 | 0.696 | 0.66 | 0.716 | 0.697 |  |  | 0.672
IA-LM | 0.855 | 0.778 | 0.886 | 0.843 |  |  |  |  | 0.794 | 0.817 | 0.728 | 0.713 |  |  |  |  | 0.789 |  | 0.769
LC-2-ad | 0.796 | 0.704 | 0.675 | 0.694 | 0.807 | 0.715 | 0.834 | 0.692 | 0.415 | 0.446 | 0.394 | 0.264 | 0.696 | 0.73 | 0.53 | 0.559 |  |  | 
LCLC-103H | 0.664 | 0.762 | 0.719 | 0.762 | 0.657 | 0.652 | 0.775 | 0.666 |  |  |  |  | 0.509 | 0.471 | 0.493 | 0.516 | 0.786 | 0.764 | 
